Like-named read-outs stand apart in the source and are kept apart here.
Legend:
[1] = molecular target: T1, 5-HT2B receptor (Homo sapiens, UniProt P41595); experiment: 5-HT2B Gq dissociation BRET functional assay; assay type: cell-based; settings: Table 2; for EC50: at least three replicate trials; for 5-HT2B BRET Eff %: normalized to % 5-HT stimulation
T1 construct: expressed in transfected cells; host or cells: HEK293T

[2] = molecular target: T2, human ether-a-go-go-related gene (hERG) K+ channel (Homo sapiens, UniProt Q12809); experiment: Eurofins hERG Qube APC Assay; assay type: cell-based; settings: for IC50 (hERG)/EC50 (5-HT2A) ratio: Table 4; for hERG risk potential: based on IC50 (hERG)/EC50 (5-HT2A) ratio
T2 construct: Eurofins
T2 sequence (Q12809 whole entry): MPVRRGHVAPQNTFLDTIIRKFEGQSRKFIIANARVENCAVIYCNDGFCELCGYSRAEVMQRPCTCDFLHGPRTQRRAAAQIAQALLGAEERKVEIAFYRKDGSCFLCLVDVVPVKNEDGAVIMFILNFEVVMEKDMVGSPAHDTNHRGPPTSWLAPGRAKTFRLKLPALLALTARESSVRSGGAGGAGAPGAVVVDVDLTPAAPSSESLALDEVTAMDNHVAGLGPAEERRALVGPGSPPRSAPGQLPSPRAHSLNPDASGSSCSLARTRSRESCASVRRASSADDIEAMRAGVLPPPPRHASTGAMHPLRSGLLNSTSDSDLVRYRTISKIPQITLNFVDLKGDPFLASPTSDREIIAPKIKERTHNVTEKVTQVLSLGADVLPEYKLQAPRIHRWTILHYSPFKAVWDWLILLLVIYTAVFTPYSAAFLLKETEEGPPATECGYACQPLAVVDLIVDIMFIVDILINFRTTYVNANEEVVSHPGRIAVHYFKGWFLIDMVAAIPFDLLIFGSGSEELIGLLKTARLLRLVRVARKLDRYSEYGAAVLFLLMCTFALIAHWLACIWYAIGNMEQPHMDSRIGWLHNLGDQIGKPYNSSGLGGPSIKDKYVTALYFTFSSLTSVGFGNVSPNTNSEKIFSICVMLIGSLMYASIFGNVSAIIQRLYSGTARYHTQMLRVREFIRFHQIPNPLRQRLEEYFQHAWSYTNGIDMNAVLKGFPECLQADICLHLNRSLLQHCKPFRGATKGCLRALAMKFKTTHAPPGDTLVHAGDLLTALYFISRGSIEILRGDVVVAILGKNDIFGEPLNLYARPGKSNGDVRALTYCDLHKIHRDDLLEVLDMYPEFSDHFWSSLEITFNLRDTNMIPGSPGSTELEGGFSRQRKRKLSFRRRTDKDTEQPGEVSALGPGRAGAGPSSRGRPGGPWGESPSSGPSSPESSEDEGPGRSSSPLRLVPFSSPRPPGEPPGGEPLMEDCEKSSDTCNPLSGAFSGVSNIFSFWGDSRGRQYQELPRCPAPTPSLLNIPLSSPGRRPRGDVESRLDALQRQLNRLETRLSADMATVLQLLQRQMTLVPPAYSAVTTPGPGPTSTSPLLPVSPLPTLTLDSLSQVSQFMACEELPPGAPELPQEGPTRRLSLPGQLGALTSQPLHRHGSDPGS
From the text: As used herein and unless otherwise specified, the term “hERG risk” refers to the risk of a compound potentially inhibiting the human ether-a-go-go-related gene (hERG) K^+ channel, thereby leading to QT prolongation.
As a result of, many compounds disclosed in Table 1 and Table 2 were screened for the potential of “hERG risk” using pharmacological assays (e.g. Eurofins™ hERG Qube APC Assay). […].

[3] = molecular target: T3, 5-HT2C receptor (Homo sapiens, UniProt P28335); experiment: cell-based; assay type: cell-based; settings: Table 2; for EC50: at least three replicate trials, read-out: 5-HT2C BRET EC50; for 5-HT2C BRET Eff %: normalized to % 5-HT stimulation
T3 construct: expressed in transfected cells; host or cells: HEK293T
T3 sequence (P28335 33-458): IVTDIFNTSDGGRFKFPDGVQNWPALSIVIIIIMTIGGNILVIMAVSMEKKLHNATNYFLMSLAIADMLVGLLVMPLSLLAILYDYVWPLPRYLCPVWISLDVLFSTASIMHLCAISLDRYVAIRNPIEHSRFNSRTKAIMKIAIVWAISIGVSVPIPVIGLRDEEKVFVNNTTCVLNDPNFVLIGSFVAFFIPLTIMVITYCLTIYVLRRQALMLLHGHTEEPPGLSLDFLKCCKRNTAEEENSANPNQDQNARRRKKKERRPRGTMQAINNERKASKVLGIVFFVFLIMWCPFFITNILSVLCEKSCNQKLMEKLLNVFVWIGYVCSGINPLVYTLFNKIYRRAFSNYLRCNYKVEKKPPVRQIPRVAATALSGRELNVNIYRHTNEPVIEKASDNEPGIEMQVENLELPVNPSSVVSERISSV

[4] = molecular target: T4, 5-HT2A receptor (Homo sapiens, UniProt P28223); experiment: 5-HT2A Gq dissociation BRET functional assay; assay type: cell-based; settings: for 5-HT2A BRET Eff %: normalized to % 5-HT stimulation
T4 construct: expressed in transfected cells; host or cells: HEK293T
T4 sequence (P28223 whole entry): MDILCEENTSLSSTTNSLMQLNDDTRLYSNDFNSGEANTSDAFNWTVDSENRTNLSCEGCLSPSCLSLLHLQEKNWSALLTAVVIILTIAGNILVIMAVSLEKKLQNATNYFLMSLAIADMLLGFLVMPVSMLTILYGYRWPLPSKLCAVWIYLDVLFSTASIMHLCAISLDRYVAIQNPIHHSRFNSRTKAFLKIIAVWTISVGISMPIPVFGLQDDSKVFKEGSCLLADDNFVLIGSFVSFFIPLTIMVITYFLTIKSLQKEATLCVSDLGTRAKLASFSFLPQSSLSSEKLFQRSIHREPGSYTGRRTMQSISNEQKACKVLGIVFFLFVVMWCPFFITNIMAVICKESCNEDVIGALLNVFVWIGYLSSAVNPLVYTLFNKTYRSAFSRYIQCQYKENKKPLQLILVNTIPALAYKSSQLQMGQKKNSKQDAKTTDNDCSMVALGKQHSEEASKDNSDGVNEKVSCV

[5] = test system: mice; experiment: head-twitch response (HTR) in mice; assay type: in vivo, male C57BL/6J mice; settings: Mus musculus; mice
Experimental: As used herein and unless otherwise specified, the term “HTR” refers to head-twitch response, which is a measurement of 5-HT2A activation in vivo.
As used herein and unless otherwise specified, the term “mice” refers to male C57BL/6J mice (6-8 weeks old).
HTR was assessed using a head-mounted neodymium magnet and a magnetometer detection coil, as described in Halberstadt et al., Psychopharmacology (Berl.), 2013, 227(4): 727-739. Table 8 below summarizes the ED50 in head twitch in mice of various compounds disclosed herein as compared to psilocybin. FIG. 3 illustrates the HTR relative to dose for compound 109: […]

[6] = 5-HT2A BRET EC50 (nM), Table 2, at least three replicate trials
[7] = EC50 BRET 2A, Table 4, unit inferred
[8] = Table 2, at least three replicate trials, read-out: 5-HT2A BRET EC50
[9] = Table 4, unit inferred, read-out: EC50 BRET 2A

T1 sequence (P41595 whole entry): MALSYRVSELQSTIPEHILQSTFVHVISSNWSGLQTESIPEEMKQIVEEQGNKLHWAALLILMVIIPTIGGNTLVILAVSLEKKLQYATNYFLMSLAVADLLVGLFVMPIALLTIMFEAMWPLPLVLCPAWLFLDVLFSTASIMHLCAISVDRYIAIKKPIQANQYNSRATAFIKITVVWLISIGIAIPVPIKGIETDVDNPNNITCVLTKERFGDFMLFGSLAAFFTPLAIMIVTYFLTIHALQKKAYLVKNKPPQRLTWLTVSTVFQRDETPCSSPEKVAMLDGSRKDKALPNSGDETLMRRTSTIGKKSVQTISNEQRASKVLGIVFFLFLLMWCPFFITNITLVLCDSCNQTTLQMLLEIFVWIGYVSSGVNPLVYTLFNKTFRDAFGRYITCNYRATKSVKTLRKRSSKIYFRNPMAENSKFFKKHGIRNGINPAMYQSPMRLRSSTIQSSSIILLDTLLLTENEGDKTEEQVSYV

Row | Compound | 5-HT2B BRET EC50 (nM) / Eff % [1] | IC50 [2] | IC50 (hERG)/EC50 (5-HT2A) ratio [2] | hERG risk potential [2] | EC50 [3] | 5-HT2C BRET Eff % [3] | EC50 [4, 6] | EC50 [4, 7] | 5-HT2A BRET Eff % ([4]; Table 2) | EC50 ([1]; 5-HT2B BRET EC50 (nM)) | 5-HT2B BRET Eff % [1] | ED50 [5] | EC50 ([1]; read-out: 5-HT2B BRET EC50) | EC50 [4, 8] | EC50 [4, 9]
1 | COc1cc(C#N)ccc1CCNCc1ccccc1Cl [Cpd #12] | Inactive | 1720 nM | 17 | High (compounds exhibiting a IC50 (hERG) /EC50 (5-HT2A) ratio of less than or equal to 150 are generally indicative of high hERG risk potential) | 1200 nM | 130% | 102 nM | 102 nM | 90% |  |  |  |  |  | 
2 | COc1cc(C#N)ccc1CCNCc1ccccc1OC [Cpd #27] |  | 2000 nM | 476 |  | 15.9 nM | 109% | 4.2 nM | 4.2 nM | 96% | 423 nM | 66% | 3 mg/kg |  |  | 
3 | COc1cccc(CNCCc2ccc(C#N)cc2OC)c1 [Cpd #28] | Inactive | 1600 nM | 19 | High (compounds exhibiting a IC50 (hERG) /EC50 (5-HT2A) ratio of less than or equal to 150 are generally indicative of high hERG risk potential) | 873 nM | 91% | 84 nM | 84 nM | 68% |  |  |  |  |  | 
4 | COc1cc(C#N)ccc1CCNCc1cccc2c1CCO2 [Cpd #63] | Inactive | 1600 nM | 12 | High (compounds exhibiting a IC50 (hERG) /EC50 (5-HT2A) ratio of less than or equal to 150 are generally indicative of high hERG risk potential) | 2090 nM | 78% | 135 nM | 135 nM | 62% |  |  |  |  |  | 
5 | COc1cc(C#N)ccc1CCNCc1cccc2occc12 [Cpd #64] |  | 900 nM | 30 | High (compounds exhibiting a IC50 (hERG) /EC50 (5-HT2A) ratio of less than or equal to 150 are generally indicative of high hERG risk potential) | 357 nM | 104% |  |  | 82% |  | 93% |  | 8920 nM | 29.8 nM | 29.8 nM
6 | COc1cc(C#N)ccc1CCNCc1cccc2c1OCO2 [Cpd #65] | Inactive | 2000 nM | 102 | High (compounds exhibiting a IC50 (hERG) /EC50 (5-HT2A) ratio of less than or equal to 150 are generally indicative of high hERG risk potential) | 496 nM | 97% | 19.7 nM | 19.7 nM | 84% |  |  |  |  |  | 
7 | COc1cc(C#N)ccc1CCNCc1ccccc1SC [Cpd #108] |  | 1780 nM | 742 |  | 16 nM | 103% | 2.4 nM | 2.4 nM | 99% | 2380 nM | 128% | 7.23 mg/kg |  |  | 
8 | COc1cc(C#N)c(F)cc1CCNCc1ccccc1O [Cpd #117] |  | 900 nM | 237 |  | 40.8 nM | 115% | 3.8 nM | 3.8 nM | 97% | 4360 nM | 68% | 2.09 mg/kg |  |  | 
9 | CSc1ccc(CCNCc2ccccc2O)c(O)c1 [Cpd #122] | inactive | 790 nM | 564 |  | 3.6 nM | 108% | 1.6 nM | 1.4 nM | 92% |  |  |  |  |  | 
10 | Oc1cc(Cl)ccc1CCNCc1ccccc1O [Cpd #131] | Inactive | 1310 nM | 624 |  | 1.8 nM | 103% | 2.4 nM | 2.1 nM | 93% |  |  | 1.24 mg/kg |  |  | 
11 | N#Cc1ccc(CCNCc2ccccc2O)c(C(F)(F)F)c1 [Cpd #137] | Inactive |  |  |  | 56.5 nM | 83% | 312 nM |  | 89% |  |  |  |  |  | 
12 | COc1cc(C#N)ccc1CCNCc1cccs1 [Cpd #138] |  |  |  |  | 198 nM | 102% |  |  | 75% |  | −2% |  | 0.03 nM | 187 nM | 
13 | N#Cc1ccc(CCNCc2ccsc2Cl)c(O)c1 [Cpd #139] | Inactive |  |  |  | 4670 nM | 91% |  |  | 80% |  |  |  |  | 1260 nM | 
14 | COc1cc(Oc2ccccc2)ccc1CCN [Cpd #140] | Inactive |  |  |  | 796 nM | 107% | 2890 nM |  | 87% |  |  |  |  |  | 
15 | COc1cc2c(cc1CCNCc1ccccc1O)CCO2 [Cpd #141] |  |  |  |  | 1.6 nM | 107% | 2.3 nM |  | 96% | 78.5 nM | 59% |  |  |  | 
16 | CSc1ccccc1CNC[C@@H]1CCc2cc(C#N)cc(O)c21 [Cpd #142] |  |  |  |  | 17600 nM | 108% |  |  | 68% |  | −20% |  | 18.5 nM | 1960 nM | 
17 | CN(C)CCc1c[nH]c2cccc(OP(=O)(O)O)c12 [Psilocybin, psilocybin, reference compound] |  |  |  |  |  |  |  |  |  |  |  | 0.38 mg/kg |  |  | 
18 | Oc1ccccc1CNCC(O)c1ccc(C(F)(F)F)cc1OCc1ccccc1 (centres unmarked) [Reference Compound 1a, reference compound] |  | 2300 nM | 5 | High (compounds exhibiting a IC50 (hERG) /EC50 (5-HT2A) ratio of less than or equal to 150 are generally indicative of high hERG risk potential) | 326 nM | 105% |  |  | 91% |  | 56% |  | 342 nM | 451 nM | 451 nM

From US20250074871A1, “PHENETHYLAMINES AND METHODS OF PREPARATION THEREOF” (priority 2022, published 2025)
